Target: T1, human HSL (Homo sapiens, UniProt Q05469)
T1 construct: generate a full length human HSL ORF with a 3′-His6 tag; made in house; host or cells: High 5 insect cells (baculovirus, pFast-BAC)
T1 sequence (Q05469 1-1076): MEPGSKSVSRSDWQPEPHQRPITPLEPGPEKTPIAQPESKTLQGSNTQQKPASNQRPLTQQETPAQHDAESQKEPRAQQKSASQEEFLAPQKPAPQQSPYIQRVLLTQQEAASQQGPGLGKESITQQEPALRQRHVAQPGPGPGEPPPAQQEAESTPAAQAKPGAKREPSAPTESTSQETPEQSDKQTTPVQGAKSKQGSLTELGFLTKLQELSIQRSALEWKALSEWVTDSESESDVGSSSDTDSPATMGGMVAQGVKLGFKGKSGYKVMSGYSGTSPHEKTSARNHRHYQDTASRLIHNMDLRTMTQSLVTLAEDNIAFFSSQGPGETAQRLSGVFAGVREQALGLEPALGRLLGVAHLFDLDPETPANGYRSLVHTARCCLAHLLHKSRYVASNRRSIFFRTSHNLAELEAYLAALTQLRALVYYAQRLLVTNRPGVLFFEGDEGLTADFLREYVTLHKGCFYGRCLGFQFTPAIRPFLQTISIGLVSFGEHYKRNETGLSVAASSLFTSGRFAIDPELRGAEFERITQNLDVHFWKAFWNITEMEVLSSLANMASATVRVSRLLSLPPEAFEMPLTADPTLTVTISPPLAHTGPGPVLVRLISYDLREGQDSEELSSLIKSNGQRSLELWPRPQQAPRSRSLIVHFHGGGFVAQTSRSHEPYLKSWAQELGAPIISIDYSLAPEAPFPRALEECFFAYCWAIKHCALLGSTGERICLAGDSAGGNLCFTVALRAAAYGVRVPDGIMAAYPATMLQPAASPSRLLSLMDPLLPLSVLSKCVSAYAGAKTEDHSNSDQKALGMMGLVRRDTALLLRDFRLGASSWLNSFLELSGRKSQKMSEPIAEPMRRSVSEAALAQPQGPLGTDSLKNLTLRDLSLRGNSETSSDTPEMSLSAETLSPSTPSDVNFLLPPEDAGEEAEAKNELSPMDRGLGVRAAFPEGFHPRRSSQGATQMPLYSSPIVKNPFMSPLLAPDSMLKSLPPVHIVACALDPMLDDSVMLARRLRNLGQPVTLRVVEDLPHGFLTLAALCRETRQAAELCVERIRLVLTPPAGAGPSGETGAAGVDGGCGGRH
Experiment: Human Hormone-Sensitive Lipase (HSL) enzyme inhibition assay (colorimetric, DMPT substrate)
Format: biochemical
Conditions: human full length HSL-His6, 2,3-dimercapto-1-propanol tributyrate substrate, 37° C. 20 minutes, absorbance at 405 nm; read-out: HSL hum IC50
Experimental: Production of Human Full Length Hormone Sensitive Lipase-His^6:
1) Cloning: cDNA was prepared from commercial human brain polyA+ RNA and used as a template in overlapping PCR to generate a full length human HSL ORF with a 3′-His6 tag. This full length insert was cloned into the pFast-BAC vector and the DNA-sequence of several single clones was verified. DNA from a correct full length clone with the 3′His6 tag was used to transform the E. coli strain DH10BAC. Resulting bacmid DNA was used to generate a titered baculovirus stock for protein generation. The sequence of the encoded HSL conforms to Swissprot entry Q05469, with the additional C-terminal His6-tag. 2) Protein purification: Culture: 5.5 L, High 5 cells expressing human full length HSL-His^6, 48 hr., containing 25 μM E-64. Cell count: […], 90% viable. Cells were thawed. On ice, cells were suspended in Base Buffer containing 10% glycerol, 25 mM Tris-Cl, 300 mM NaCl, 10 mM imidazole, 10 mM 2-mercaptoethanol, 2 μg pepstatin/ml, 2 μg leupeptin/ml, 2 μg antipain/ml, pH 8.0 at 4° C. in a final volume of 475 ml with 3.75×10^7 cells/ml. […] was done at 3×30 sec., Lubrol PX was added to 0.2% final concentration followed by stirring for 15 min. at 4° C. and centrifugation at 25 k×g, 60 min., 4° C. Soluble proteins were mixed with 60 ml of pre-washed and equilibrated Ni-NTA Agarose (Qiagen 30210) followed by tumbling end-over-end, 45 min., 4° C., centrifugation 1000 rpm 5 min and letting resin settle 5 min. Supernatant was removed, the resin washed in the centrifuge vessel using 5 volumes of Base Buffer containing 0.2% Lubrol PX. Centrifugation was done again, then the supernatant discarded. The resin was poured onto a 0.8 μm membrane in a disposable filter unit (Nalge 450-0080), and washed with 5 volumes of Base Buffer containing 0.2% Lubrol PX. It was then washed with 30 volumes of Base Buffer containing 60 mM imidazole pH 7.5 at 4° C. The protein was eluated with 5 volumes of 25 mM Tris-Cl, 300 mM NaCl, 200 mM imidazole, 10 mM 2-mercaptoethanol, pH 7.5 at 4° C. by tumbling resin with buffer end-over-end, 30 min., 4° C. The resin was captured on a 0.2 μm membrane disposable filter unit (Millipore SCGP U02 RE) and the eluate collected in the reservoir. The eluate was concentrated using a 30 k MWCO centrifugal filter device (Sartorius Vivascience Vivacell 100, VC1022), to 20 ml. It was then dialyzed overnight at 4° C., two times against 2 L of 10% glycerol, 25 mM Tris-Cl, 300 mM NaCl, 0.2 mM EDTA, 0.2 mM DTT, pH 7.5 at 4° C. The protein was filtered using a 0.22 μm disposable filter unit (Millipore SCGP00525). The protein concentration was calculated from absorbance at 280 nm, using 280=0.67 cm-1 mg-1. Yield was 235 mg, total. The protein was stored at −80° C. Human Hormone-Sensitive Lipase (HSL) Enzyme Inhibition Assay:
HSL enzyme activity was measured by a colorimetric assay using 2,3-dimercapto-1-propanol tributyrate (Aldrich, St. Louis, Mo.) as a substrate. Typically, 1.5 mM 2,3-dimercapto-1-propanol tributyrate (DMPT) in 100 mM MOPS, pH 7.2, 0.2 mg/ml fatty acid-free BSA was prepared by sonication at 4° C. to homogenous suspension. Test compounds (2 mM stock in DMSO) were diluted 3 fold in series in DMSO. Compound solutions were diluted 24 fold in 1.5 mM DMPT containing solution and 18 ul per well was added to 384-well microplates (Corning Costar). Twelve microliters per well of human HSL (15 ug/ml) was added and the reaction mixture was incubated at 37° C. for 20 minutes. Six microliters of 12 mM dithio-bis-(2-nitrobenzoic acid) (DTNB) in DMSO plus 1.2% SDS and 0.6% Triton X-100 were added and the mixture was incubated at room temperature for 15 minutes. Product production was monitored by reading absorbance at 405 nm on an Envision Reader (PerkinElmer Life and Analytical Sciences, Shelton, Conn.).

IC50 [nM] | SMILES
220 | CC(Oc1ccc(N2CCC3(CCC(O)CC3)C2=O)cc1)C(F)(F)F (mixture of isomers) [Example 162, 8-Hydroxy-2-[4-(2,2,2-trifluoro-1-methyl-ethoxy)-phenyl]-2-aza-spiro[4.5]decan-1-one]
30 | CCC[C@]1(O)CC[C@]2(CCN(c3ccc(C(O)C(F)(F)F)cc3)C2=O)CC1 (mixture of isomers) [Example 133, (5α,8α)-8-Hydroxy-8-propyl-2-(4-(2,2,2-trifluoro-1-hydroxyethyl)phenyl)-2-aza-spiro[4.5]decan-1-one]
10 | CC(C)(C)c1ccc(N2CCC3(CCC(C(O)C(F)(F)F)CC3)C2=O)cc1 (single isomer, unassigned) [Example 360, (5α,8β)-2-(4-tert-Butyl-phenyl)-8-(2,2,2-trifluoro-1-hydroxy-ethyl)-2-aza-spiro[4.5]decan-1-one]
110 | CC(C)(C)c1ccc(N2CCC3(CCC(C(O)C(F)(F)F)CC3)C2=O)cc1 (single isomer, unassigned) [Example 361, (5α,8α)-2-(4-tert-Butyl-phenyl)-8-(2,2,2-trifluoro-1-hydroxy-ethyl)-2-aza-spiro[4.5]decan-1-one]
470 | O=C1N(c2ccc(OC(F)(F)F)cc2)CC[C@]12CC[C@@H](O)CC2 [Example 1, (5α,8β)-8-Hydroxy-2-(4-trifluoromethoxy-phenyl)-2-aza-spiro[4.5]decan-1-one]
150 | O=C1N(c2ccc(OC(F)(F)F)cc2)CC[C@]12CC[C@H](O)CC2 [Example 2, (5α,8α)-8-Hydroxy-2-(4-trifluoromethoxy-phenyl)-2-aza-spiro[4.5]decan-1-one]
40 | CCCNC(=O)O[C@H]1CC[C@@]2(CCN(c3ccc(OC(F)(F)F)cc3)C2=O)CC1 [Example 11, Propyl-carbamic acid [(5α,8β)-1-oxo-2-(4-trifluoromethoxy-phenyl)-2-aza-spiro[4.5]dec-8-yl]ester]

The next lines start with the molecule.

SMILES | IC50 [nM]
COc1ccc(N2CC[C@]3(CC[C@@H](OCc4ccccc4)CC3)C2=O)cc1 [Example 3, (5α,8β)-8-Benzyloxy-2-(4-methoxy-phenyl)-2-aza-spiro[4.5]decan-1-one] | 610
CCc1ccc(N2CC[C@]3(CC[C@@H](OCc4ccccc4)CC3)C2=O)cc1 [Example 4, (5α,8β)-8-Benzyloxy-2-(4-ethyl-phenyl)-2-aza-spiro[4.5]decan-1-one] | 240
CCc1ccc(N2CC[C@]3(CC[C@@H](O)CC3)C2=O)cc1 [Example 5, (5α,8β)-2-(4-Ethyl-phenyl)-8-hydroxy-2-aza-spiro[4.5]decan-1-one] | 2370
CCCNC(=O)O[C@H]1CC[C@@]2(CCN(c3ccc(CC)cc3)C2=O)CC1 [Example 6, Propyl-carbamic acid [(5α,8β)-2-(4-ethyl-phenyl)-1-oxo-2-aza-spiro[4.5]dec-8-yl]ester] | 100
CCc1ccc(N2CC[C@]3(CC[C@@H](OC(=O)NCc4cccc(F)c4)CC3)C2=O)cc1 [Example 7, (3-Fluoro-benzyl)-carbamic acid [(5α,8β)-2-(4-ethyl-phenyl)-1-oxo-2-aza-spiro[4.5]dec-8-yl]ester] | 70
CCc1ccc(N2CC[C@]3(CC[C@@H](OC(=O)Nc4ccccc4)CC3)C2=O)cc1 [Example 8, Phenyl-carbamic acid [(5α,8β)-2-(4-ethyl-phenyl)-1-oxo-2-aza-spiro[4.5]dec-8-yl]ester] | 270
O=C1N(c2ccc(OC(F)(F)F)cc2)CC[C@]12CC[C@@H](OCc1ccccc1)CC2 [Example 9, (5α,8β)-8-Benzyloxy-2-(4-trifluoromethoxy-phenyl)-2-aza-spiro[4.5]decan-1-one] | 190
O=C(NCc1cccc(F)c1)O[C@H]1CC[C@@]2(CCN(c3ccc(OC(F)(F)F)cc3)C2=O)CC1 [Example 10, (3-Fluoro-benzyl)-carbamic acid [(5α,8β)-1-oxo-2-(4-trifluoromethoxy-phenyl)-2-aza-spiro[4.5]dec-8-yl]ester] | 60
COc1cccc(CNC(=O)O[C@H]2CC[C@@]3(CCN(c4ccc(OC(F)(F)F)cc4)C3=O)CC2)c1 [Example 12, (3-Methoxy-benzyl)-carbamic acid [(5α,8β)-1-oxo-2-(4-trifluoromethoxy-phenyl)-2-aza-spiro[4.5]dec-8-yl]ester] | 60
COc1ccc(CNC(=O)O[C@H]2CC[C@@]3(CCN(c4ccc(OC(F)(F)F)cc4)C3=O)CC2)cc1 [Example 13, (4-Methoxy-benzyl)-carbamic acid [(5α,8β)-1-oxo-2-(4-trifluoromethoxy-phenyl)-2-aza-spiro[4.5]dec-8-yl]ester] | 90
O=C(NCc1ccccc1F)O[C@H]1CC[C@@]2(CCN(c3ccc(OC(F)(F)F)cc3)C2=O)CC1 [Example 14, (2-Fluoro-benzyl)-carbamic acid [(5α,8β)-1-oxo-2-(4-trifluoromethoxy-phenyl)-2-aza-spiro[4.5]dec-8-yl]ester] | 20
O=C(NCc1ccc(F)cc1)O[C@H]1CC[C@@]2(CCN(c3ccc(OC(F)(F)F)cc3)C2=O)CC1 [Example 15, (4-Fluoro-benzyl)-carbamic acid [(5α,8β)-1-oxo-2-(4-trifluoromethoxy-phenyl)-2-aza-spiro[4.5]dec-8-yl]ester] | 70
Cc1cccc(CO[C@H]2CC[C@@]3(CCN(c4ccc(OC(F)(F)F)cc4)C3=O)CC2)n1 [Example 16, (5α,8β)-8-(6-Methyl-pyridin-2-ylmethoxy)-2-(4-trifluoromethoxy-phenyl)-2-aza-spiro[4.5]decan-1-one] | 100

— patent US8440710B2, “HSL inhibitors useful in the treatment of diabetes” (Hoffmann-La Roche Inc., priority 2009, dated 2013)
